Test systems include Malme-3M; SW-620; OVCAR-5; UACC-62; NCI/ADR-RES; CAKI-1; Hs-578T; ACHN; K562; SNB-75; LOX IMVI; SK-OV-3; PC-3; A549; NCI-H23; HT-29; A498; KM12; M14; SR.
Holding throughout (assay): inhibition of tumour cell growth, NCI panel, 48 h

Eleven compounds from ChEMBL document CHEMBL1201862, “PubChem BioAssay data set” (2004) can be followed below.

Molecules are shown by their SMILES.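 Each compound was tested at five concentrations against cells in 96-well plates for 48 hours. At the GI50, growth is halved.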 The source made the active and inactive calls. No stated cut-off is given here; in the data, active = GI50 up to about 1.1 µM and inactive = higher.

On to `N#Cc1c(SCc2ccccc2)nc(-c2ccccc2)[nH]c1=S`, for which the GI50 was 37.2 µM (inactive) in the assay with Malme-3M; 25.6 µM (inactive) in the assay on SW-620; 25.8 µM (inactive) in the assay on OVCAR-5; 21.7 µM (inactive) in the assay on UACC-62; 23.5 µM (inactive) in the assay with NCI/ADR-RES; 33.3 µM (inactive) in the assay on CAKI-1. Besides, the GI50 was 32.1 µM (inactive) with Hs-578T; 23 µM (inactive) with ACHN; 31.6 µM (inactive) with K562; 19.1 µM (inactive) with SNB-75; 30 µM (inactive) in the assay with LOX IMVI; 23.4 µM (inactive) in the assay with SK-OV-3. Besides, the GI50 is 18.7 µM (inactive) in the assay on PC-3; 30.8 µM (inactive) in the assay with A549; 18.2 µM (inactive) in the assay on NCI-H23; 28.4 µM (inactive) in the assay on HT-29; 27.3 µM (inactive) in the assay with A498; 17.4 µM (inactive) with KM12. In the assay on M14, the GI50 is 29.9 µM (inactive).

Regarding `NCCSC1(O)C(=O)c2ccccc2-c2ccccc21` (stereo unspecified), the GI50 in the assay with Malme-3M was 1 µM (active); with SW-620 it was 1.52 µM (inactive); in the assay on OVCAR-5 it was 1.53 µM (inactive); in the assay with UACC-62, 1.64 µM (inactive); in the assay with NCI/ADR-RES, 0.272 µM (active); in the assay with Hs-578T, 1.41 µM (inactive). Besides, the GI50 with ACHN was 1.05 µM (active); in the assay with K562, 0.382 µM (active); in the assay on SNB-75, 0.553 µM (active); in the assay on LOX IMVI it was 0.256 µM (active); in the assay with SK-OV-3, 1.63 µM (inactive); in the assay with PC-3, 1.25 µM (inactive). For the same compound, the GI50 in the assay on A549 was 0.719 µM (active); in the assay with NCI-H23, 0.143 µM (active); with SR, 0.0472 µM (active); in the assay with HT-29, 1.21 µM (inactive); with KM12, 1.63 µM (inactive); in the assay on M14, 1.02 µM (active).

In the case of `CC1=C(C2=C(C)C(=O)C(=O)c3cc(C)ccc32)c2ccc(C)cc2C(=O)C1=O`, the GI50 in the assay with Malme-3M was 0.215 µM (active); in the assay with SW-620, 0.255 µM (active); in the assay with OVCAR-5 it was 0.199 µM (active); with UACC-62, 0.191 µM (active); in the assay with NCI/ADR-RES, 0.274 µM (active); with CAKI-1, 0.182 µM (active). In addition, the GI50 with Hs-578T is 0.318 µM (active); in the assay with ACHN, 0.189 µM (active); with K562, 0.185 µM (active); with SNB-75, 0.236 µM (active); in the assay with LOX IMVI, 0.207 µM (active); in the assay on SK-OV-3, 1.45 µM (inactive). In addition, the GI50 in the assay on PC-3 is 0.298 µM (active); in the assay on A549, 1.7 µM (inactive); in the assay with NCI-H23, 0.208 µM (active); with HT-29, 0.277 µM (active); with A498 it was 1.59 µM (inactive); with KM12, 0.205 µM (active). The GI50 in the assay on M14 was 0.182 µM (active).

Take `CCC[C@H](C)C[C@H](C)C[C@H](C)/C=C(\C)[C@@H](O)[C@@H](C)C(=O)CC`: the GI50 with Malme-3M is 18.5 µM (inactive); with SW-620 it was 20.3 µM (inactive); in the assay on OVCAR-5, 19.9 µM (inactive); in the assay with UACC-62, 17.1 µM (inactive); in the assay on NCI/ADR-RES, 17 µM (inactive); with CAKI-1, 22.4 µM (inactive). The GI50 with Hs-578T was 25 µM (inactive); with ACHN, 21.9 µM (inactive); with K562, 18.3 µM (inactive); in the assay on SNB-75 it was 49.9 µM (inactive); in the assay with LOX IMVI, 20.4 µM (inactive); in the assay with SK-OV-3, 36.2 µM (inactive). Besides, the GI50 was 20 µM (inactive) in the assay with PC-3; 19.9 µM (inactive) with A549; 18.9 µM (inactive) in the assay on NCI-H23; 19.5 µM (inactive) in the assay with HT-29; 25.5 µM (inactive) with A498; 20.2 µM (inactive) with KM12. In the assay with M14, the GI50 is 19.8 µM (inactive).

On to `O=c1oc2ccc3ccccc3c2cc1-c1cn2ccccc2n1`, for which the GI50 in the assay with SW-620 was > 100 µM (inactive); in the assay with UACC-62 it was > 100 µM (inactive); in the assay on NCI/ADR-RES, > 100 µM (inactive); with CAKI-1 it was 11.8 µM (inactive); with Hs-578T, 35.6 µM (inactive); in the assay on ACHN it was 22.6 µM (inactive). The GI50 was > 100 µM (inactive) with K562; > 100 µM (inactive) in the assay with SNB-75; 91.8 µM (inactive) with LOX IMVI; 39.4 µM (inactive) with SK-OV-3; > 100 µM (inactive) in the assay with PC-3; 24.7 µM (inactive) with A549. Also, the GI50 is > 100 µM (inactive) with NCI-H23; > 100 µM (inactive) with SR; 26.5 µM (inactive) with HT-29; 57.7 µM (inactive) in the assay on KM12; > 100 µM (inactive) with M14.

As for `O=C(/C=C(\C(=O)c1cccs1)c1cccs1)c1ccc(C(=O)/C=C(\C(=O)c2cccs2)c2cccs2)cc1`, the GI50 with SW-620, with UACC-62, in the assay with NCI/ADR-RES, with CAKI-1, in the assay with Hs-578T and in the assay on ACHN was > 100 µM (inactive) throughout. The GI50 in the assay with K562, with SNB-75, in the assay with SK-OV-3, in the assay with PC-3, in the assay on A549 and in the assay with SR was > 100 µM (inactive) each time. The GI50 with HT-29, with KM12 and with M14 was > 100 µM (inactive) each time.

Consider `CC1=C(C)C(=O)C(C2=C(C3=CC(=O)C(C)=C(C)C3=O)C(=O)C(C)=C(C)C2=O)=CC1=O`, for which the GI50 is 3.1 µM (inactive) in the assay on Malme-3M; 3.32 µM (inactive) with SW-620; 7.85 µM (inactive) in the assay with OVCAR-5; 10.5 µM (inactive) in the assay on UACC-62; 1.13 µM (inactive) with NCI/ADR-RES; 3.44 µM (inactive) in the assay on CAKI-1. Besides, the GI50 is 16.1 µM (inactive) in the assay with Hs-578T; 5.79 µM (inactive) in the assay with ACHN; 16.6 µM (inactive) in the assay on SNB-75; 2.57 µM (inactive) in the assay on LOX IMVI; 17.4 µM (inactive) in the assay on SK-OV-3; 4.62 µM (inactive) in the assay with PC-3. Further, the GI50 was 30.3 µM (inactive) with A549; 14.7 µM (inactive) in the assay with NCI-H23; 3.01 µM (inactive) in the assay with HT-29; 14.3 µM (inactive) in the assay with A498; 8.51 µM (inactive) in the assay on KM12; 10 µM (inactive) in the assay with M14.

In the case of `COc1cccc(NC(=O)c2c(SC)c(C#N)c(=O)n(N)c2N)c1`, the GI50 is > 100 µM (inactive) with Malme-3M; 51.2 µM (inactive) in the assay with SW-620; 31.7 µM (inactive) with OVCAR-5; 61.5 µM (inactive) in the assay on UACC-62; 43 µM (inactive) in the assay with NCI/ADR-RES; > 100 µM (inactive) in the assay with CAKI-1. Besides, the GI50 in the assay with Hs-578T is 41.1 µM (inactive); in the assay with ACHN it was > 100 µM (inactive); with K562, 45.9 µM (inactive); in the assay on SNB-75 it was 1.46 µM (inactive); with LOX IMVI it was 88.1 µM (inactive); in the assay with SK-OV-3, 44.5 µM (inactive). Moreover, the GI50 is 49.8 µM (inactive) with PC-3; 57.7 µM (inactive) in the assay with A549; 52 µM (inactive) in the assay on HT-29; 79.3 µM (inactive) with A498; > 100 µM (inactive) in the assay on KM12; 30.6 µM (inactive) in the assay on M14.

In the case of `CO[C@@H]1C[C@H]2N3CC[C@@]2(c2cc4c(cc2C3)OCO4)[C@H]2O[C@@H]12`, the GI50 in the assay on Malme-3M, in the assay on SW-620, with OVCAR-5, in the assay on UACC-62, with NCI/ADR-RES and with CAKI-1 was > 100 µM (inactive) in each case. The GI50 with Hs-578T, in the assay on ACHN, in the assay with K562, in the assay on SNB-75, in the assay with LOX IMVI and in the assay with SK-OV-3 was > 100 µM (inactive) in each case. The GI50 in the assay on PC-3, in the assay on A549, in the assay on NCI-H23, in the assay with HT-29, in the assay with A498 and in the assay with KM12 was > 100 µM (inactive) each time. In addition, the GI50 in the assay with M14 was > 100 µM (inactive).

For the compound `C=C1C(=O)O[C@@H]2[C@H]1CC[C@H](C)[C@]1(O)CCC(=O)[C@@]21C` [CORONOPILIN], the GI50 in the assay on Malme-3M, in the assay on SW-620, in the assay on UACC-62, in the assay on NCI/ADR-RES, with Hs-578T and with K562 was > 10 µM (inactive) each time. The GI50 in the assay on SNB-75 was > 10 µM (inactive); with LOX IMVI, > 10 µM (inactive); in the assay on SK-OV-3, > 10 µM (inactive); in the assay on PC-3 it was > 10 µM (inactive); with A549, > 10 µM (inactive); in the assay on NCI-H23, 4.16 µM (inactive). The GI50 was 5.73 µM (inactive) in the assay on SR, > 10 µM (inactive) in the assay on HT-29 and > 10 µM (inactive) in the assay on KM12.

With `NC(Cc1ccccc1)C(=O)O` (stereo not drawn) [DL-PHENYLALANINE], the GI50 in the assay with Malme-3M, with SW-620, in the assay on OVCAR-5, in the assay with UACC-62, in the assay with NCI/ADR-RES and in the assay on CAKI-1 was > 100 µM (inactive) throughout. Moreover, the GI50 in the assay on Hs-578T, with ACHN, with K562, with SNB-75, in the assay with LOX IMVI and in the assay on SK-OV-3 was > 100 µM (inactive) each time. Besides, the GI50 in the assay on PC-3, in the assay with A549, in the assay with NCI-H23, with HT-29, in the assay with A498 and in the assay on KM12 was > 100 µM (inactive) throughout. For the same compound, the GI50 with M14 was > 100 µM (inactive).
